Results as given in patent US9587225B2, “Low-molecular-compound for improving production, maintenance and proliferation of pluripotent stem cells, composition comprising the same, and culture method” (KOREA RESEARCH INSTITUTE OF BIOSCIENCE AND BIOTECHNOLOGY, priority 2012, dated 2017).

Key:
Format in all cases: cell-based, human
H3K9ace = experiment: H3K9 acetylation during reprogramming (immunocytochemistry, Western blot)
Method: The left panel is a set of photographs showing the results obtained by inducing the reprogramming of human skin fibroblasts, culturing the cells for 10 days in the presence or absence of RSC-133, and then analyzing the cells by immunocytochemistry using monoclonal antibodies for H3K9ace and an undifferentiation marker (Nanog) (scale bar=200 μm). […] H3 protein was used as an internal control.
For immunostaining, cells were seeded on Matrigel-coated 4-well Lab-Tek chamber slides (Nunc, Naperville, Ill.) and cultured for 5 days under the indicated conditions. The cells were fixed in 4% paraformaldehyde at room temperature for 15 minutes, and then washed with PBS/0.2% BSA. Next, the cells were passed through PBS/0.2% BSA/0.1% Triton X-100 for 15 minutes, and then incubated with 4% normal donkey serum (Molecular Probes, Eugene, Oreg., USA) in PBS/0.2% BSA at room temperature for 1 hour. The cells were diluted with PBS/0.2% BSA, and then reacted with primary antibody at 4° C. for 2 hours. After washing, the cells were reacted with FITC- or Alexa594-conjugated secondary antibody (Invitrogen) in PBS/0.2% BSA at room temperature for 1 hour. The cells were counter-stained with 10 μg/ml DAPI.
Most of various low-molecular-weight compounds known to be involved in the reprogramming process are involved genome methylation patterns, histone acetylation patterns or major signaling mechanisms. […]

[1] = tested on: Nanog, Oct4, Rex1, p53, p21 and p16; experiment: Expression of pluripotency markers and p53, p21, p16 during reprogramming (real-time RT-PCR, immunostaining)
Method: In still another example of the present invention, in order to examine whether the novel compound RSC-133 can promote kinetics in a culture process for reprogramming to shorten the time required for the induction of reprogramming, the expression patterns of pluripotency-specific markers were analyzed at various time points.
Total RNA was isolated from the produced cells using RNeasy Mini kit (Qiagen, Valencia, Calif.), and then reverse-transcribed using SuperScript First-strand synthesis system kit (Invitrogen) according to the manufacturer's instruction. […]
In order to examine whether RSC-133 can increase the rate of reprogramming, the relative levels of mRNA expressed during the reprogramming process were measured. […] Thus, it can be seen that RSC-133 can increase the efficiency of reprogramming and also can be involved in the reprogramming process to stimulate kinetics.

total HDAC enzymes = experiment: Activity of total HDAC enzymes during reprogramming; details: during reprogramming (FIG. 19 left)
Method: The values shown on the graph are mean values. The data are expressed as mean±SD (n=3) (*P<0.01, **P<0.005, by t-test).
Next, whether the above-described results were results of the inhibition of HDAC enzyme by RSC-133 during reprogramming of human skin fibroblasts was examined. […] According to the experimental method shown in FIG. 21, the expression levels of HDAC-family proteins were measured, and as a result, it could be seen that the expression level of HDAC1 in the test group treated with RSC-133 was inhibited at 10 days after treatment with RSC-133 compared to that of the control group (the light panel of FIG. 19 and FIG. 21). It was reported that HDAC1 can occupy the Oct4, Sox2, Klf4 and c-Myc gene loci in embryonic stem cells and that the expression of pluripotency-specific marker genes in HDAC1-deleted embryonic stem cells is increased. Thus, it is believed that RSC-133 can inhibit the function of HDAC1 and increase the H3K9ace level to stimulate the reprogramming process.

- activity of total HDAC enzymes (total HDAC enzymes): slightly inhibited
SMILES: NC(=O)c1cccc(NC(=O)/C=C/c2c[nH]c3ccccc23)c1 [RSC-133, 3-[3-(1H-indol-3-yl)-acrylamido]-benzamide]
- H3K9ace level by Western blot (H3K9ace; H3 as internal control (FIG. 18 right)): The same results were also obtained
- ratio of undifferentiated cells having a high H3K9ace level (immunocytochemistry) (H3K9ace; cultured 10 days in presence or absence of RSC-133 (FIG. 18 left)): higher in the test group treated with RSC-133 than in the control group
- time of appearance of pluripotency-specific markers (Nanog, Tra1-81, Oct4, Rex1) ([1]; immunostaining and real-time PCR at various time points (FIGS. 15, 16)): appeared early than that in an untreated control group
- expression levels of undifferentiation markers Nanog, Oct4 and Rex1 ([1]; real-time RT-PCR, cells harvested at 5-day intervals, presence vs absence of RSC-133 (FIG. 16)): relatively increased
- expression levels of p53, p21 and p16 ([1]; real-time RT-PCR, presence vs absence of RSC-133 (FIG. 16 lower panel)): relatively inhibited
